Assay [1] deals with T1, human TLR7 (Homo sapiens, UniProt Q9NYK1).
T1 construct: expresses full-length human TLR7 and secretory alkaline phosphatase (SEAP) reporter gene; host or cells: TLR7/NF-κB/SEAPorter HEK293 cell line
T1 sequence (Q9NYK1 27-1049): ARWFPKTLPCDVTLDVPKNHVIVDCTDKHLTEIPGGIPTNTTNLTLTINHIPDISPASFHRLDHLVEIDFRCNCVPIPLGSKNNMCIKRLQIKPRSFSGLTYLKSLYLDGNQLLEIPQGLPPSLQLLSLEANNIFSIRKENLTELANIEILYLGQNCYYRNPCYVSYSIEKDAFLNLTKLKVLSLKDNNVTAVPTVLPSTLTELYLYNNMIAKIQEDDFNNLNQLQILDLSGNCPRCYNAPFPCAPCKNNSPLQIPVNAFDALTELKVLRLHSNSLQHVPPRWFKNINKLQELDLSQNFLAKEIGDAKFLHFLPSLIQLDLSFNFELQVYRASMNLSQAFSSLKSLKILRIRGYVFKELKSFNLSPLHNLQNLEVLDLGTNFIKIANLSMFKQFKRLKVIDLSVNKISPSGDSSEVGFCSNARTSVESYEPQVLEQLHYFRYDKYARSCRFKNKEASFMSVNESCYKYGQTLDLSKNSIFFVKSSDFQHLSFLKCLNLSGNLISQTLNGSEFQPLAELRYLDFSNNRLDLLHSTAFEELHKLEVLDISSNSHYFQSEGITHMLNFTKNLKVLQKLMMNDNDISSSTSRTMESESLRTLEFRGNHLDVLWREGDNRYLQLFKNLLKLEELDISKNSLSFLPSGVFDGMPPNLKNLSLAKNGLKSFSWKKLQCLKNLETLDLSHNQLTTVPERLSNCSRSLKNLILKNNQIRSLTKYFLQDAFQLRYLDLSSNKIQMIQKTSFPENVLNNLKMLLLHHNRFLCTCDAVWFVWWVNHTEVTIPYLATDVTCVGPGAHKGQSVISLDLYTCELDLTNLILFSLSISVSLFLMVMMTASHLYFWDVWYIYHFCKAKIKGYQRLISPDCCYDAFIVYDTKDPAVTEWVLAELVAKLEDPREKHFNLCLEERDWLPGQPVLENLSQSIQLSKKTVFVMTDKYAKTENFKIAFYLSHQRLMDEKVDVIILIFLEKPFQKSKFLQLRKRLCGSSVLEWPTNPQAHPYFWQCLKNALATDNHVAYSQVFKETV
The assay is described as follows: Human TLR7 reporter gene assay (Test 1). The assay is classed as cell-based. The settings on record: half-maximal SEAP induction, TLR7/NF-κB/SEAPorter HEK293 cell line, overnight 37° C., 0.1% DMSO. The text has this:
TLR7/NF-κB/SEAPorter™ HEK293 cell line (Imgenex Corporation) is a stably co-transfected cell line which expresses full-length human TLR7 and secretory alkaline phosphatase (SEAP) reporter gene under the transcriptional regulation of an NF-κB response element. The TLR7 expression of the cell line has been already tested by flow cytometry. Transfectants with stable expression were selected using the antibiotic blasticidin and Geneticin. TLR signaling leads to the translocation of NF-κB and the activation of the promoter results in expression of the SEAP gene. TLR7-specific activation was assessed by determining the level of SEAP produced following overnight incubation of the cells at 37° C. with each compound prepared in Examples and Reference examples in the presence of 0.1% (v/v) dimethylsulfoxide (DMSO). The human TLR7 activity for the present compound was assessed by human TLR7 reporter gene assay, and the results are shown in Tables 6 and 7 as the compound concentration which produced half of the maximal level of SEAP induction (EC50).

The target in assay [2] is T2, mouse TLR7 (Mus musculus, UniProt P58681).
T2 construct: expresses full-length mouse TLR7 and secretory SEAP reporter gene; host or cells: HEK-Blue mTLR7 cell line
T2 sequence (P58681 27-1050): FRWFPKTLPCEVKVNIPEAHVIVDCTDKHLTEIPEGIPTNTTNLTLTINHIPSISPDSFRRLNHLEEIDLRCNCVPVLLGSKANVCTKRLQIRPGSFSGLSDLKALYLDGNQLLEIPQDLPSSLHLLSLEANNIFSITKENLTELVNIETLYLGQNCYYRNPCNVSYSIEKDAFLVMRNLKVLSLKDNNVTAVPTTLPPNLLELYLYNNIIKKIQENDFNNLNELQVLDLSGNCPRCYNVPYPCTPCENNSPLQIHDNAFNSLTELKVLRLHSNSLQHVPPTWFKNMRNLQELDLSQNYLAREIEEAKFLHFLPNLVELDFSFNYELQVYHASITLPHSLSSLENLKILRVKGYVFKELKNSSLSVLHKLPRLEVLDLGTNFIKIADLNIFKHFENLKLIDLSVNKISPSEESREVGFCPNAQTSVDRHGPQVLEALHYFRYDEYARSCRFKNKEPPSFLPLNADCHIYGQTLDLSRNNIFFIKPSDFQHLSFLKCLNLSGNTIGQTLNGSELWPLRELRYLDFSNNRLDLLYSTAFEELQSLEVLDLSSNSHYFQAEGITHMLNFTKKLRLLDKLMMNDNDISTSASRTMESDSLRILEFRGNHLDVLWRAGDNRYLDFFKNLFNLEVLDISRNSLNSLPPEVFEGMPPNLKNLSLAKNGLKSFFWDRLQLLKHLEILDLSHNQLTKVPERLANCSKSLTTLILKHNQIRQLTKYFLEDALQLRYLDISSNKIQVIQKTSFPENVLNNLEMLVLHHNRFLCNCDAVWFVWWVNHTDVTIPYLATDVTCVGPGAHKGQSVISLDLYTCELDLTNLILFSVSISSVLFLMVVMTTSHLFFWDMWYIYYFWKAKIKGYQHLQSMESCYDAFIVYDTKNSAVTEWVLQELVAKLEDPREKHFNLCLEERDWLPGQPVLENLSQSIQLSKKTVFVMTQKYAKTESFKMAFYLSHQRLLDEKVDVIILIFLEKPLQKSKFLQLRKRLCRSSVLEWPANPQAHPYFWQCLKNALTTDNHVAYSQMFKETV
As to the kind of experiment: Mouse TLR7 reporter gene assay (Test 2). The assay is classed as cell-based. To be noted: half-maximal SEAP induction, HEK-Blue mTLR7 cell line, overnight 37° C., 0.1% DMSO. The text has this:
HEK-Blue™ mTLR7 cell line (Invivogen) is a stably co-transfected cell line which expresses full-length mouse TLR7 and secretory SEAP reporter gene under the transcriptional regulation of an NF-κB response element. The TLR7 expression of the cell line has been already tested by RT-PCR. Transfectants with stable expression were selected using the antibiotic blasticidin and Zeocin. TLR signaling leads to the translocation of NF-κB and the activation of the promoter results in expression of the SEAP gene. TLR7-specific activation was assessed by determining the level of SEAP produced following overnight incubation of the cells at 37° C. with each compound prepared in Examples and Reference examples in the presence of 0.1% (v/v) DMSO. The mouse TLR7 activity for the present compound was assessed by mouse TLR7 reporter gene assay, and the results are shown in Tables 8 and 9 as the compound concentration which produced half of the maximal level of SEAP induction (EC50).
A general note: In a reporter assay the amount or activity of a reporter protein is the signal.

Assay [3] has as its system HLA-A*02:01 transgenic mouse. As to the kind of experiment: In vivo adjuvant activity, CTL induction with vaccine b, IFNγ ELISPOT (Test 18). The settings on record: 0.04 nmol per body added to vaccine b versus no compound; twice. As to the method: The in vivo adjuvant activity of the compound of Example 6 was evaluated in the following procedure. To vaccine b like Test 17 was added the compound prepared in Example 6 to prepare a vaccine. The vaccine was administered to a HLA-A*02:01 transgenic mouse, and the adjuvant activity of the vaccine was evaluated by the method of testing antigen-specific CTL induction.
Specifically, Compound of formula 4 and Peptide SEQ ID No. 3 were dissolved in DMSO, and then diluted with water for injection to concentrations of Compound of formula 4 of 3 mg/mL and Peptide SEQ ID No. 3 of 2.25 mg/mL. The diluted peptide solution was mixed and emulsified with an equal volume of Montanide ISA 51 VG to prepare vaccine b. Vaccine b was injected to mice intradermally at the tail base area in an amount for administering 300 μg of Compound of formula 4 per body and 225 μg of Peptide SEQ ID No. 3 per body. Or, in the step of preparing vaccine b, the compound prepared in Example 6 was added to the diluted peptide solution to prepare a vaccine, and the prepared vaccine was injected to mice intradermally at the tail base area in an amount for administering 300 μg of Compound of formula 4 per body, 225 μg of Peptide SEQ ID No. 3 per body, and 0.04 nmol of the compound prepared in Example 6 per body. […] Then, after removal of the supernatant from the wells, stained spots on the ELISPOT plate were counted.

In assay [4] the test system is HLA-A*02:01 transgenic mouse. The assay is described as follows: In vivo adjuvant activity, CTL induction with vaccine b, IFNγ ELISPOT (Test 17). To be noted: 0.04 nmol or 0.4 nmol per body added to vaccine b versus no compound; twice. As to the method:
The in vivo adjuvant activity of the compounds prepared in Examples 7, 8, and 9 was evaluated in the following procedure. To vaccine b comprising Compound of formula 4 prepared in Reference example 9 and Peptide SEQ ID No. 3 prepared in Reference example 3 with Montanide ISA51 VG was added the compound prepared in Example 7, 8, or 9 to prepare each vaccine. The vaccine was administered to a HLA-A*02:01 transgenic mouse, and the adjuvant activity of each vaccine was evaluated by the method of testing antigen-specific CTL induction.
Specifically, Compound of formula 4 and Peptide SEQ ID No. 3 were dissolved in DMSO, and then diluted with water for injection to concentrations of Compound of formula 4 of 3 mg/mL and Peptide SEQ ID No. 3 of 2.25 mg/mL. The diluted peptide solution was mixed and emulsified with an equal volume of Montanide ISA 51 VG to prepare vaccine b. Vaccine b was injected to mice intradermally at the tail base area in an amount for administering 300 μg of Compound of formula 4 per body and 225 μg of Peptide SEQ ID No. 3 per body. […] Then, after removal of the supernatant from the wells, stained spots on the ELISPOT plate were counted.

pEC50: −log10 of the molar value.

This note sets out measurements from US20220241409A1, “WATER SOLUBLE ADJUVANT AND COMPOSITION CONTAINING SAME” (Sumitomo Dainippon Pharma Co., Ltd., priority 2019, published 2022).

Broadly, the pEC50 is the EC50 on a negative log10 scale, so that one unit is a factor of ten. The low end stands for a large EC50, the high end for a small EC50.

As to `CCCCOc1nc(N)c2[nH]c(=O)n(Cc3ccc(CN(C)CCOCCOCCOCCOCCO)cn3)c2n1` [Example 1, 6-amino-2-butoxy-9-{[5-(16-hydroxy-2-methyl-5,8,11,14-tetraoxa-2-azahexadecan-1-yl)pyridin-2-yl]methyl}-7,9-dihydro-8H-purin-8-one.trifluoroacetate], the pEC50 in assay [1] (Table 6, Examples) is 6.82; in assay [2] (Table 8, Examples), 5.84.

In assay [1] (Table 6, Examples), `COCCOc1nc(N)c2[nH]c(=O)n(Cc3ccc(CN(C)CCOCCOCCOCCOCCO)cc3)c2n1` [Example 4, 6-amino-9-{[4-(16-hydroxy-2-methyl-5,8,11,14-tetraoxa-2-azahexadecan-1-yl)phenyl]methyl}-2-(2-methoxyethoxy)-7,9-dihydro-8H-purin-8-one] showed a negative logarithm of the EC50 (pEC50) of 5.28.

`CCCCOc1nc(N)c2[nH]c(=O)n(Cc3ccc(CN(CCOCCOCCOCCO)CCOCCOCCOCCO)nc3)c2n1` [Example 6, 6-Amino-2-butoxy-9-({6-[13-hydroxy-2-(2-{2-[2-(2-hydroxyethoxy)ethoxy]ethoxy}ethyl)-5,8,11-trioxa-2-azatridecan-1-yl]pyridin-3-yl}methyl)-7,9-dihydro-8H-purin-8-one]: in assay [3], the “CTL counts responsive to Peptide SEQ ID No. 5” value is “more”.

`CCCCOc1nc(N)c2[nH]c(=O)n(Cc3ccc(CN(C)CCOCCOCCOCCOCCOCCOCCOCCOCCOCCO)nc3)c2n1` [Example 7, 6-Amino-2-butoxy-9-{[6-(31-hydroxy-2-methyl-5,8,11,14,17,20,23,26,29-nonaoxa-2-azahentriacontan-1-yl)pyridin-3-yl]methyl}-7,9-dihydro-8H-purin-8-one]: the “CTL counts responsive to Peptide SEQ ID No. 5” value in assay [4] is given as “more”.

On to `CCCCOc1nc(N)c2[nH]c(=O)n(Cc3ccc(CN(C)CCOCCOCCOCCOCCOCCOCCOCCOCCOCCOCCOCCOCCOCCOCCOCCOCCOCCOCCOCCOCCOCCOCCOCCO)nc3)c2n1` [Example 8, 6-Amino-2-butoxy-9-{[6-(73-hydroxy-2-methyl-5,8,11,14,17,20,23,26,29,32,35,38,41,44,47,50,53,56,59,62,65,68,71-tricosaoxa-2-azatriheptacontan-1-yl)pyridin-3-yl]methyl}-7,9-dihydro-8H-purin-8-one], for which the “CTL counts responsive to Peptide SEQ ID No. 5” value in assay [4] is on record as “more”.

Take `CCCCOc1nc(N)c2[nH]c(=O)n(Cc3ccc(CNC)cn3)c2n1` [compound 13, reference compound]: the pEC50 in assay [1] (Table 7, Reference examples) was 7.09; in assay [2] (Table 9, Reference examples), 6.55.
